Assay results taken from patent publication US20200255838A1, “Selenium Cancer Therapy” (University of Massachusetts, priority 2017, published 2020).

Experiments:
Assay type in all cases: cell-based
[1] = system: MDAMB468 and MDAMB231 cell lines; assay: Hydrogen selenide gas toxicity assay; conditions: gas from sodium selenide in 10% hydrochloric acid, 96-well plate
Method: We developed a novel gas toxicity assay in which hydrogen selenide was produced in one well of a 96-well plate and the toxic effects were measured in an adjacent well. As described, SEPHS2 KO or control KO was achieved via pLENTICRISPR lentiviral transduction, and then cells were subjected to hydrogen selenide gas toxicity. Hydrogen selenide gas was formed by dissolving sodium selenide in an acidic (10% Hydrochloric Acid) solution in the central wells of a 96-well culture plate. SEPHS2 KO and CTRL cells (for MDAMB468 and MDAMB231 cell lines) were pre-seeded at various distances from the source of hydrogen gas toxicity (distances were equal under both conditions). The viability of each set of cells was averaged and relative viability of the SEPHS2 KO cells relative to control KO cells for each cell line are shown in FIG. 8.

GPX4 and SEPHS2 = assay: Selenoprotein expression after selenite supplementation of media; conditions: selenite supplemented to media
U251 cells = assay: Selenite toxicity / growth in KO cells
Method: FIGS. 2A-D provide evidence that SEPHS2 plays a detoxifying role in U251 GBM cell line. (A) Knockdown of either SEPHS2 or SEPSECS can block selenoprotein expression. (B) However, only SEPHS2 KO has significant toxicity. (C) Model for ‘pushing’ toxicity in which if SEPHS2 plays a detoxifying role, its KO should synergize with increased selenited input. (D) Synergy is indeed seen with 12 uM selenite treatment in conjunction with SEPHS2 KO. Growth is normalized to the already lower growth rate of the SEPHS2 KO cells, thus the bars in asterisks indicate (statistically significant) synergy.
We had classified SEPHS2 as a putative detoxifier as its substrate, selenide, is the most toxic form of selenium^12. The notion of SEPHS2 as a detoxifier has not 1 0 previously been explored, and SEPHS2 is simply known for its enzymatic role (which cannot be replaced by its isoform, SEPHS1^13) as an intermediate step in producing selenocysteine for selenocysteinyl-tRNA production. The selenocysteine producing pathway is a simple and linear pathway starting from dietary selenite—or selenite or other inorganic forms which can be converted to selenite, selenite being the most common form^14,15. Selenite is imported and converted through in an unclear manner to form selenide, which is then metabolized by SEPHS2 to form selenophosphate, accompanied by ATP hydrolysis. […]

[SeH2] [hydrogen selenide gas, hydrogen selenide]
Viability of SEPHS2 KO cells relative to control KO cells under hydrogen selenide gas [1]: hypersensitive

O=[Se](O)O [selenite]
Expression of selenoproteins GPX4 and SEPHS2 (GPX4 and SEPHS2): increased expression | Growth with selenite in conjunction with SEPHS2 KO (U251 cells; 12 uM selenite, U251, growth normalized to SEPHS2 KO cells): Synergy | Toxicity of high-dose selenite in SLC7A11 KO cells (U251 cells; 12 μM selenite, U251 cells, both guides against SLC7A11): complete rescue
